In US12391671B2, “Allosteric EGFR inhibitors and methods of use thereof” (Dana-Farber Cancer Institute, Inc., priority 2019, dated 2025):
Where a name gives a salt, the structure may show the parent alone. Read-outs that look alike come from different tables or passages of the source.

Tests used:
[1] = molecular target: EGFR L858R/T790M (Homo sapiens (Human), UniProt P00533, L858R/T790M); assay: HTRF-based EGFR biochemical assay (L858R/T790M); conditions: 100 μM ATP, enzyme 0.02 nM
Procedure: (§1) Example 25: HTRF-Based EGFR Biochemical Assays
(§2) EGFR biochemical activity measurements were carried out using the homogeneous time-resolved fluorescence (HTRF) assay (Cisbio), inhibitors and DMSO normalizations were first dispensed to empty black low-volume 384-well plates (Corning) with 0300 digital liquid dispenser (HP). All reactions were carried out at room temperature and solutions were added to plates with a Multidrop Combi Reagent Dispenser (ThermoFisher). The reaction mixture (10 μL final volume) contained 1 μM tyrosine kinase peptide-biotin substrate and mutant EGFR in a reaction buffer (50 mM HEPES pH 7.0, 5 mM MgCl2, 1 mM MnCl2, 0.01% BSA, 2 mM TCEP, 0.1 mM NaVO4). Enzyme concentrations were adjusted to accommodate varying kinase activities (L858R 0.1 nM, L858R/T790M 0.02 nM). Enzyme reaction solution (2× concentrations, 5 μL) was added to 384-well plates containing compounds and incubated for 30 mins. Enzyme reactions were initiated with the addition of 5 μL of ATP to a final concentration of 100 μM and reacted for 20 mins. Reactions were quenched with the addition of 10 μL of phospho-tyrosine antibody-Europium(III) cryptate (1-to-180 volume ratio) and Streptavidin-XL665 (46.7 nM) in EDTA-containing detection buffer, then incubated at room temperature for 1 hour, and read with a PHERAstar plate reader (excitation=337 nm, emission=620 nm and 665 nm).

[2] = molecular target: EGFR L858R (Homo sapiens (Human), UniProt P00533, L858R); assay: HTRF-based EGFR biochemical assay (L858R); conditions: 100 μM ATP, enzyme 0.1 nM
Sequence of EGFR L858R (P00533 25-1210 L858R): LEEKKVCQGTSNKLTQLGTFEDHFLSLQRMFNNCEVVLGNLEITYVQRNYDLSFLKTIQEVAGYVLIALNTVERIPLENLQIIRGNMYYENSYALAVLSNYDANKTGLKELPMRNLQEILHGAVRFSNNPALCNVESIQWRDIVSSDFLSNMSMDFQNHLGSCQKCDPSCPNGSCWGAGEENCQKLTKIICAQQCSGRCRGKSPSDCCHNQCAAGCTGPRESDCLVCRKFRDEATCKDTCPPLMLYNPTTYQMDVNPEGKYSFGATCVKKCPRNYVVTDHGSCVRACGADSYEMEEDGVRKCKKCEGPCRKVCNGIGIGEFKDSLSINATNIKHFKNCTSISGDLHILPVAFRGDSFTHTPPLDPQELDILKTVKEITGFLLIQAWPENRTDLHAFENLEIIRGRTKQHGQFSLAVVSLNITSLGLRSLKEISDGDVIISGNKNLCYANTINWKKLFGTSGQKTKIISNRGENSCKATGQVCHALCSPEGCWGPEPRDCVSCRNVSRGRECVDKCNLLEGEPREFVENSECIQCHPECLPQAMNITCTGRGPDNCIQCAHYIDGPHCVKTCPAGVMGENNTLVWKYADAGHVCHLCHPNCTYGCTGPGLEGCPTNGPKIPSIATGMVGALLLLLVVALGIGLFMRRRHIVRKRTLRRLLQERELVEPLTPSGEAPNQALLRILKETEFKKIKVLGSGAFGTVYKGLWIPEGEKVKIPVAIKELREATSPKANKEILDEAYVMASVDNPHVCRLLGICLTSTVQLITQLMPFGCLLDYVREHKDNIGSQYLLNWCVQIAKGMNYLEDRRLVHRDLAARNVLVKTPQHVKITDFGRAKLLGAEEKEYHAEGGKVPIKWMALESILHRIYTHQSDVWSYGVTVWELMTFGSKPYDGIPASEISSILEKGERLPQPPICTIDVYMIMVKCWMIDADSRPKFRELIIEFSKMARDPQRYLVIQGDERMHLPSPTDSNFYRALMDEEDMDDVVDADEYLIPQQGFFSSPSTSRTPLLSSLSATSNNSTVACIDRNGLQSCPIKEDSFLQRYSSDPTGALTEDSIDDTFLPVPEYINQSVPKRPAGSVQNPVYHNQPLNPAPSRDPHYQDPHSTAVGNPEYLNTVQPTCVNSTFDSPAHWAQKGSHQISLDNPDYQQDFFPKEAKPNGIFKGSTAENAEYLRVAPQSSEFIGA
Procedure: as §1, §2

[3] = system: EGFR mutant L858R/T790M Ba/F3 cells; assay: Ba/F3 cell proliferation model (Cell Titer Glo), EGFR L858R/T790M; assay type: cell-based, murine; conditions: 72 hours
Text: Example 26: Ba/F3 Cell Proliferation Models
The EGFR mutant L858R and L858R/T790M Ba/F3 cells have been previously described (Zhou, W., et al. Nature 462, 2009, 1070-1074). All cell lines were maintained in RPM 1640 (Cellgro; Mediatech Inc., Herndon. CA) supplemented with 10% FBS, 100 units/mL penicillin, 100 units/mL streptomycin. The EGFR I941R mutation was introduced via site directed mutagenesis using the Quick Change Site-Directed Mutagenesis kit (Stratagene; La Jolla, CA) according to the manufacturer's instructions. All constructs were confirmed by DNA sequencing. The constructs were shuttled into the retroviral vector JP1540 using the Cre-recombination system (Agilent Technologies, Santa Clara, CA). Ba/F3 cells were then infected with retrovirus per standard protocols, as described previously (Zhou, et al, Nature 2009). Stable clones were obtained by selection in puromycin (2 μg/ml).
Growth and inhibition of growth was assessed by the Cell Titer Glo® assay (Promega, Madison, WI) and was performed according to the manufacturer's instructions. The Cell Titer Glo® assay is a luminescence-based method used to determine the number of viable cells based on quantitation of the ATP present, which is directly proportional to the amount of metabolically active cells present. Ba/F3 cells of different EGFR genotypes were exposed to compounds as a single agent or in combination with 1 μg/mL cetuximab for 72 hours and the number of cells used per experiment was determined empirically as has been previously established (Zhou, et al., Nature 2009). All experimental points were set up in triplicates in 384-well plates and all experiments were repeated at least three times. […] The curves were fitted using a non-linear regression model with a sigmoidal dose response.

[4] = Mus musculus, BaF3, single agent, read-out: Cell IC50 BaF3 EGFR L858R/T790M
[5] = in combination with 1 μg/mL cetuximab, read-out: Cell IC50 BaF3 EGFR L858R/T790M (+cetux.)

Sequence of EGFR L858R/T790M (P00533 25-1210 T790M/L858R): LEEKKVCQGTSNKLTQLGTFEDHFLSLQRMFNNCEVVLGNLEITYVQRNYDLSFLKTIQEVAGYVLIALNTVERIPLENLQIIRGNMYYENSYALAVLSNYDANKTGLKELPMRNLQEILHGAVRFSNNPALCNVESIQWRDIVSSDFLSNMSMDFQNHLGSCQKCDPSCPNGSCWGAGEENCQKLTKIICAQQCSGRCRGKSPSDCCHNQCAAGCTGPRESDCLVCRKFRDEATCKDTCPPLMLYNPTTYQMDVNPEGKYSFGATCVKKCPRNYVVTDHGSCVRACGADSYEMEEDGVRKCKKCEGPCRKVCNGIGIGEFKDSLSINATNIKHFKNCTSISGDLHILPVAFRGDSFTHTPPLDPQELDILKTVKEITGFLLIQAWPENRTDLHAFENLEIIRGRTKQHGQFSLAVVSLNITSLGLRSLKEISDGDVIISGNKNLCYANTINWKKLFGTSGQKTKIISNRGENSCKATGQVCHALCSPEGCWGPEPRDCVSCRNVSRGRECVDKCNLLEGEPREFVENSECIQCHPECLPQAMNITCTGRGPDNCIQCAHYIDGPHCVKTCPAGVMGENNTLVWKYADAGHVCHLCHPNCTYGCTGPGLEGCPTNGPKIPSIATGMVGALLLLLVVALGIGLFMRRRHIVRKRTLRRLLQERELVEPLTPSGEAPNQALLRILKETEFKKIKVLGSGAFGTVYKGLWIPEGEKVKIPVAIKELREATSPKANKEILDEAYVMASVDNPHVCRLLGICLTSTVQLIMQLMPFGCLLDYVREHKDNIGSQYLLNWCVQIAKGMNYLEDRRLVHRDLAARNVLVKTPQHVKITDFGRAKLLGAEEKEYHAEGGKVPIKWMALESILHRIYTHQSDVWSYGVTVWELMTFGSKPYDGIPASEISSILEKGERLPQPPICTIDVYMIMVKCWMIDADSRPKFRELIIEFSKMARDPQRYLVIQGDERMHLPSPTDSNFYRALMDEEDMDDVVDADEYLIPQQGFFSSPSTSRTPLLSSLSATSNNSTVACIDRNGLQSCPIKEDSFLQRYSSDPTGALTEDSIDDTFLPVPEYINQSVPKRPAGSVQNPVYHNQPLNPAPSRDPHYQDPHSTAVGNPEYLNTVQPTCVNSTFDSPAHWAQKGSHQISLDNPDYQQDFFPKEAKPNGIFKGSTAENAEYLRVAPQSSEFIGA

| Compound | IC50 [1] | IC50 [2] | IC50 [3, 4] | IC50 [3, 5] |
| --- | --- | --- | --- | --- |
| CN1CCC(c2ccc(-c3ccc4c(c3)C(=O)N([C@H](c3nc5ccccc5[nH]3)c3cc(F)ccc3O)C4)cc2)CC1 (single isomer, unassigned) [Compound 023] | 1 nM | 6 nM | 950 nM | 20 nM |
| CN1CCC(c2ccc(-c3ccc4ncn(C(c5nc6ccccc6[nH]5)c5cc(F)ccc5O)c(=O)c4c3)cc2F)CC1 (stereo not shown) [Compound 001, 3-[1H-Benzimidazol-2-yl-(5-fluoro-2-hydroxy-phenyl)methyl]-6-[3-fluoro-4-(1-methyl-4-piperidyl)phenyl]quinazolin-4-one; hydrochloride] | 0.4 nM | 1 nM | 320 nM | 9 nM |
| CN1CCC(c2ccc(-c3ccc4ncn(C(c5ccccc5)c5nc6ccccc6[nH]5)c(=O)c4c3)cc2)CC1 (stereo not shown) [Compound 002, 3-[1H-Benzimidazol-2-yl(phenyl)methyl]-6-[4-(1-methyl-4-piperidyl)phenyl]quinazolin-4-one] | 4 nM | 17 nM | 4450 nM | 140 nM |
| CN1CCC(c2ccc(-c3ccc4ncn(C(c5ccccc5)c5nc6ccccc6[nH]5)c(=O)c4c3F)cc2)CC1 (stereo not shown) [Compound 003, 3-((1H-Benzo[d]imidazol-2-yl)(phenyl)methyl)-5-fluoro-6-(4-(1-methylpiperidin-4-yl)phenyl)quinazolin-4(3H)-one 2,2,2-trifluoroacetate] | 2 nM | 9 nM | 1400 nM | 50 nM |
| CN1CCC(c2ccc(-c3ccc4ncn(C(c5cccc(F)c5)c5nc6ccccc6[nH]5)c(=O)c4c3F)cc2)CC1 (stereo not shown) [Compound 005, 3-((1H-Benzo[d]imidazol-2-yl)(3-fluorophenyl)methyl)-5-fluoro-6-(4-(1-methylpiperidin-4-yl)phenyl)-quinazolin-4(3H)-one 2,2,2-trifluoroacetate] | 1 nM | 8 nM | 1220 nM | 20 nM |
| CN1CCC(c2ccc(-c3ccc4ncn(C(c5nc6ccccc6[nH]5)c5cc(F)ccc5O)c(=O)c4c3F)cc2F)CC1 (stereo not shown) [Compound 007, 3-[1H-benzimidazol-2-yl-(5-fluoro-2-hydroxy-phenyl)methyl]-5-fluoro-6-[3-fluoro-4-(1-methyl-4-piperidyl)phenyl]quinazolin-4-one; hydrochloride] | 0.4 nM | 1 nM | 520 nM | 9 nM |
| CN1CCC(c2ccc(-c3ccc4ncn(C(c5cccc(F)c5)c5nc6ccccc6[nH]5)c(=O)c4n3)cc2)CC1 (stereo not shown) [Compound 008, 3-((1H-Benzo[d]imidazol-2-yl)(3-fluorophenyl)methyl)-6-(4-(1-methylpiperidin-4-yl)phenyl)-pyrido[3,2-d]pyrimidin-4(3H)-one 2,2,2-trifluoroacetate] | 5 nM | 42 nM | 5410 nM | 170 nM |
| CN1CCC(c2ccc(-c3cnc4c(c3)C(=O)N(C(c3nc5ccccc5[nH]3)c3cc(F)ccc3O)C4)cc2)CC1 (stereo not shown) [Compound 010, 6-[1H-Benzimidazol-2-yl-(5-fluoro-2-hydroxy-phenyl)methyl]-3-[4-(1-methyl-4-piperidyl)phenyl]-7H-pyrrolo[3,4-b]pyridin-5-one] | 4 nM | 12 nM | 1930 nM | 20 nM |
| CN1CCC(C#Cc2ccc3c(c2)C(=O)N(C(c2nc4ccccc4[nH]2)c2cc(F)ccc2O)C3)CC1 (stereo not shown) [Compound 011, 2-[1H-benzimidazol-2-yl-(5-fluoro-2-hydroxy-phenyl)methyl]-6-[2-(1-methyl-4-piperidyl)-ethynyl]isoindolin-1-one; hydrochloride] | 10 nM | 15 nM | 1920 nM | 10 nM |
| Nc1ccc(C#Cc2ccc3c(c2)C(=O)N(C(c2nc4ccccc4[nH]2)c2cc(F)ccc2O)C3)cn1 (stereo not shown) [Compound 012, 6-[2-(6-Amino-3-pyridyl)ethynyl]-2-[1H-benzimidazol-2-yl-(5-fluoro-2-hydroxy-phenyl)methyl]isoindolin-1-one] | 6 nM | 48 nM | 620 nM | 10 nM |
| O=C1c2cc(C#CCN3CCS(=O)(=O)CC3)ccc2CN1C(c1nc2ccccc2[nH]1)c1cc(F)ccc1O (stereo not shown) [Compound 013, 2-[1H-benzimidazol-2-yl-(5-fluoro-2-hydroxy-phenyl)methyl]-6-[3-(1,1-dioxo-1,4-thiazinan-4-yl)prop-1-ynyl]isoindolin-1-one; hydrochloride] | 33 nM | 22 nM | > 10000 nM | 260 nM |
| CN1CCC(c2ccc(-c3ccc4c(=O)n(C(c5nc6c(F)cccc6[nH]5)c5cc(F)ccc5O)ccc4c3)cc2)CC1 (stereo not shown) [Compound 102, 2-((4-Fluoro-1H-benzo[d]imidazol-2-yl)(5-fluoro-2-hydroxyphenyl)methyl)-6-(4-(1-methylpiperidin-4-yl)phenyl)isoquinolin-1(2H)-one] | 4 nM | 6 nM | – | – |
| CN1CCC2(c3ccc(-c4ccc5c(=O)n(C(c6nc7ccccc7[nH]6)c6cc(F)ccc6O)ccc5c4)cc3)CC2C1 (stereo not shown) [Compound 108, 2-[1H-Benzimidazol-2-yl-(5-fluoro-2-hydroxy-phenyl)methyl]-6-[4-(3-methyl-3-azabicyclo[4.1.0]heptan-6-yl)phenyl]isoquinolin-1-one; dihydrochloride] | 2 nM | 5 nM | – | – |
| CN1CCC(c2ccc(-c3ccc4c(=O)n(C(c5nc6ccccc6[nH]5)c5cc(F)ccc5O)ccc4c3)cc2F)CC1 (stereo not shown) [Compound 109, 2-[1H-Benzimidazol-2-yl-(5-fluoro-2-hydroxy-phenyl)methyl]-6-[3-fluoro-4-(1-methyl-4-piperidyl)phenyl]isoquinolin-1-one; dihydrochloride] | 2 nM | 4 nM | – | – |
| CN1CCC2(c3ccc(-c4cc(F)c5c(=O)n(C(c6nc7ccccc7[nH]6)c6cc(F)ccc6O)ccc5c4)cc3)CC2C1 (stereo not shown) [Compound 110, 2-[1H-Benzimidazol-2-yl-(5-fluoro-2-hydroxy-phenyl)methyl]-8-fluoro-6-4-(3-methyl-3-azabicyclo[4.1.0]-heptan-6-yl)phenyl]isoquinolin-1-one; dihydrochloride] | 0.6 nM | 3 nM | – | – |
| CN1CCC(c2ccc(-c3cc(F)c4c(=O)n(C(c5nc6ccccc6[nH]5)c5cc(F)ccc5O)ccc4c3)cc2F)CC1 (stereo not shown) [Compound 111, 2-[1H-Benzimidazol-2-yl-(5-fluoro-2-hydroxy-phenyl)methyl]-8-fluoro-6-[3-fluoro-4-(1-methyl-4-piperidyl)-phenyl]isoquinolin-1-one; dihydrochloride] | 0.6 nM | 3 nM | – | – |
| [2H]C(c1nc2ccccc2[nH]1)(c1cc(F)ccc1O)n1ccc2cc(-c3ccc(C4CCN(C)CC4)cc3)ccc2c1=O (stereo not shown) [Compound 112, 2-[1H-Benzimidazol-2-yl-deuterio-(5-fluoro-2-hydroxy-phenyl)methyl]-6-[4-(1-methyl-4-piperidyl)phenyl]isoquinolin-1-one] | 2 nM | 3 nM | – | – |
| [2H]C(c1nc2ccccc2[nH]1)(c1cc(F)ccc1O)n1ccc2cc(-c3ccc(C4CCN(C)CC4)cc3)cc(F)c2c1=O (stereo not shown) [Compound 113, 2-[1H-Benzimidazol-2-yl-deuterio-(5-fluoro-2-hydroxy-phenyl)methyl]-8-fluoro-6-[4-(1-methyl-4-piperidyl)phenyl]isoquinolin-1-one] | 4 nM | 14 nM | – | – |
